One block for each molecule: values may come before it.
How the values were obtained:
[1] = target: Serine/threonine-protein kinase WNK1 (Homo sapiens, UniProt Q9H4A3); test: Inhibition of human WNK1 (198 to 401 residues) using biotinylated STK3 as substrate incubated for 2 hrs by HTRF assay
[2] = target: T1, Tyrosine-protein kinase ITK/TSK (Homo sapiens, UniProt Q08881); test: Inhibition of human N-terminal His6 tagged ITK (354 to 620 residues) expressed in Sf9 insect cells incubated for 30 mins by time-resolved fluorescence assay
T1 sequence (Q08881 whole entry): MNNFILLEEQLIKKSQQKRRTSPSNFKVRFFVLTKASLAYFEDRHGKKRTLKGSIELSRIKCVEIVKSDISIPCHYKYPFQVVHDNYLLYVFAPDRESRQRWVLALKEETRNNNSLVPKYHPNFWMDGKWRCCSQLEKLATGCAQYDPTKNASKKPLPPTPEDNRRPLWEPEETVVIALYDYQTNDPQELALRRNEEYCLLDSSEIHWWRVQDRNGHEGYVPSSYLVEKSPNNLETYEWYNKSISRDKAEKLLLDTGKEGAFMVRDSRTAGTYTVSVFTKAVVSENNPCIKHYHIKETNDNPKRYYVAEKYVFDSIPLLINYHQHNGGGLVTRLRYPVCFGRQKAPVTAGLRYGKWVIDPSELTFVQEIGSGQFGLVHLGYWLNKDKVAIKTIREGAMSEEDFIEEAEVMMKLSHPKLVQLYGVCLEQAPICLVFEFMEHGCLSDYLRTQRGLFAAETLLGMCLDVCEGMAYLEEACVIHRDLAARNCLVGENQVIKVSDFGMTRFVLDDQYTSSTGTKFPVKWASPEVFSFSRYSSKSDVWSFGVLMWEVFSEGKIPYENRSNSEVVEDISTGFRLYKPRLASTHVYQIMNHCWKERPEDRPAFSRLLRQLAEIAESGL

[3] = Binding affinity to MEK1/2 (unknown origin) assessed as dissociation constant; set-up: species or system Homo sapiens
[4] = target: Hepatocyte growth factor receptor (Homo sapiens, UniProt P08581); test: Inhibition of c-Met (unknown origin)
Hepatocyte growth factor receptor, sequence (P08581 whole entry): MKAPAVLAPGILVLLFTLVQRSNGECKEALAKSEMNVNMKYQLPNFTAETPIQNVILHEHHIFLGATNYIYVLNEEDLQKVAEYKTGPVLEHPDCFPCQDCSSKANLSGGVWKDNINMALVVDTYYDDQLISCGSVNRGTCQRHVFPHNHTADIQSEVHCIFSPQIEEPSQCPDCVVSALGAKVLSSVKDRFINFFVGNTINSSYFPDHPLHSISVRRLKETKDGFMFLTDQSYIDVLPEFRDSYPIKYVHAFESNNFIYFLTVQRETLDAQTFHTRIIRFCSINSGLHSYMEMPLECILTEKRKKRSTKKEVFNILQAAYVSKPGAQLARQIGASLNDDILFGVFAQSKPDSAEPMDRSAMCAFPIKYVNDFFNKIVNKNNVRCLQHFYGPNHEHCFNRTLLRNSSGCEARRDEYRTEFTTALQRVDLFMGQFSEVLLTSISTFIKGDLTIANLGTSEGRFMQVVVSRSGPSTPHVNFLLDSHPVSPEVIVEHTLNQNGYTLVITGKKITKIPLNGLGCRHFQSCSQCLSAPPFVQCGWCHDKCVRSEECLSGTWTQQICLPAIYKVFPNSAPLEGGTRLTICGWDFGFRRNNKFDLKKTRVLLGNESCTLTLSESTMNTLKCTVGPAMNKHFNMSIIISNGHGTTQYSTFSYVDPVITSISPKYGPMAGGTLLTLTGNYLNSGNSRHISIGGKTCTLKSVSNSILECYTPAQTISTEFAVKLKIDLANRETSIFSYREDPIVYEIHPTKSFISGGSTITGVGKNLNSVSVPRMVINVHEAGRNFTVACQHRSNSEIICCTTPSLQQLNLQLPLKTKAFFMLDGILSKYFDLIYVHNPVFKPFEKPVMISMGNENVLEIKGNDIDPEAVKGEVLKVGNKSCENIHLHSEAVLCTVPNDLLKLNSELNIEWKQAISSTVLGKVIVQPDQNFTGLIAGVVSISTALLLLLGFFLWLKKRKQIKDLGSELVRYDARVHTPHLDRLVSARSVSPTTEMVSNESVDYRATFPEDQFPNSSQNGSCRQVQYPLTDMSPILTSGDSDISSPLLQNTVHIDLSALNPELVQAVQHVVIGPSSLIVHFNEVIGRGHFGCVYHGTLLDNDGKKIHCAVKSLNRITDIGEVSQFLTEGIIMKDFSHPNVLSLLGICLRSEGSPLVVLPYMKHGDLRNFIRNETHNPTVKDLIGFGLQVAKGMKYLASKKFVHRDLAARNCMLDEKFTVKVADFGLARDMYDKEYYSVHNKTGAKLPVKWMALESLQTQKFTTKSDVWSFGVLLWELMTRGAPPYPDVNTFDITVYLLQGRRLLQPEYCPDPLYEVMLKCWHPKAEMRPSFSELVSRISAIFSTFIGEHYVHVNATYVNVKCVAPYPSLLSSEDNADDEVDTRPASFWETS

[5] = Inhibition of MEK1/2 (unknown origin); set-up: species or system Homo sapiens

Serine/threonine-protein kinase WNK1, sequence (Q9H4A3 whole entry, the tested form may be a part): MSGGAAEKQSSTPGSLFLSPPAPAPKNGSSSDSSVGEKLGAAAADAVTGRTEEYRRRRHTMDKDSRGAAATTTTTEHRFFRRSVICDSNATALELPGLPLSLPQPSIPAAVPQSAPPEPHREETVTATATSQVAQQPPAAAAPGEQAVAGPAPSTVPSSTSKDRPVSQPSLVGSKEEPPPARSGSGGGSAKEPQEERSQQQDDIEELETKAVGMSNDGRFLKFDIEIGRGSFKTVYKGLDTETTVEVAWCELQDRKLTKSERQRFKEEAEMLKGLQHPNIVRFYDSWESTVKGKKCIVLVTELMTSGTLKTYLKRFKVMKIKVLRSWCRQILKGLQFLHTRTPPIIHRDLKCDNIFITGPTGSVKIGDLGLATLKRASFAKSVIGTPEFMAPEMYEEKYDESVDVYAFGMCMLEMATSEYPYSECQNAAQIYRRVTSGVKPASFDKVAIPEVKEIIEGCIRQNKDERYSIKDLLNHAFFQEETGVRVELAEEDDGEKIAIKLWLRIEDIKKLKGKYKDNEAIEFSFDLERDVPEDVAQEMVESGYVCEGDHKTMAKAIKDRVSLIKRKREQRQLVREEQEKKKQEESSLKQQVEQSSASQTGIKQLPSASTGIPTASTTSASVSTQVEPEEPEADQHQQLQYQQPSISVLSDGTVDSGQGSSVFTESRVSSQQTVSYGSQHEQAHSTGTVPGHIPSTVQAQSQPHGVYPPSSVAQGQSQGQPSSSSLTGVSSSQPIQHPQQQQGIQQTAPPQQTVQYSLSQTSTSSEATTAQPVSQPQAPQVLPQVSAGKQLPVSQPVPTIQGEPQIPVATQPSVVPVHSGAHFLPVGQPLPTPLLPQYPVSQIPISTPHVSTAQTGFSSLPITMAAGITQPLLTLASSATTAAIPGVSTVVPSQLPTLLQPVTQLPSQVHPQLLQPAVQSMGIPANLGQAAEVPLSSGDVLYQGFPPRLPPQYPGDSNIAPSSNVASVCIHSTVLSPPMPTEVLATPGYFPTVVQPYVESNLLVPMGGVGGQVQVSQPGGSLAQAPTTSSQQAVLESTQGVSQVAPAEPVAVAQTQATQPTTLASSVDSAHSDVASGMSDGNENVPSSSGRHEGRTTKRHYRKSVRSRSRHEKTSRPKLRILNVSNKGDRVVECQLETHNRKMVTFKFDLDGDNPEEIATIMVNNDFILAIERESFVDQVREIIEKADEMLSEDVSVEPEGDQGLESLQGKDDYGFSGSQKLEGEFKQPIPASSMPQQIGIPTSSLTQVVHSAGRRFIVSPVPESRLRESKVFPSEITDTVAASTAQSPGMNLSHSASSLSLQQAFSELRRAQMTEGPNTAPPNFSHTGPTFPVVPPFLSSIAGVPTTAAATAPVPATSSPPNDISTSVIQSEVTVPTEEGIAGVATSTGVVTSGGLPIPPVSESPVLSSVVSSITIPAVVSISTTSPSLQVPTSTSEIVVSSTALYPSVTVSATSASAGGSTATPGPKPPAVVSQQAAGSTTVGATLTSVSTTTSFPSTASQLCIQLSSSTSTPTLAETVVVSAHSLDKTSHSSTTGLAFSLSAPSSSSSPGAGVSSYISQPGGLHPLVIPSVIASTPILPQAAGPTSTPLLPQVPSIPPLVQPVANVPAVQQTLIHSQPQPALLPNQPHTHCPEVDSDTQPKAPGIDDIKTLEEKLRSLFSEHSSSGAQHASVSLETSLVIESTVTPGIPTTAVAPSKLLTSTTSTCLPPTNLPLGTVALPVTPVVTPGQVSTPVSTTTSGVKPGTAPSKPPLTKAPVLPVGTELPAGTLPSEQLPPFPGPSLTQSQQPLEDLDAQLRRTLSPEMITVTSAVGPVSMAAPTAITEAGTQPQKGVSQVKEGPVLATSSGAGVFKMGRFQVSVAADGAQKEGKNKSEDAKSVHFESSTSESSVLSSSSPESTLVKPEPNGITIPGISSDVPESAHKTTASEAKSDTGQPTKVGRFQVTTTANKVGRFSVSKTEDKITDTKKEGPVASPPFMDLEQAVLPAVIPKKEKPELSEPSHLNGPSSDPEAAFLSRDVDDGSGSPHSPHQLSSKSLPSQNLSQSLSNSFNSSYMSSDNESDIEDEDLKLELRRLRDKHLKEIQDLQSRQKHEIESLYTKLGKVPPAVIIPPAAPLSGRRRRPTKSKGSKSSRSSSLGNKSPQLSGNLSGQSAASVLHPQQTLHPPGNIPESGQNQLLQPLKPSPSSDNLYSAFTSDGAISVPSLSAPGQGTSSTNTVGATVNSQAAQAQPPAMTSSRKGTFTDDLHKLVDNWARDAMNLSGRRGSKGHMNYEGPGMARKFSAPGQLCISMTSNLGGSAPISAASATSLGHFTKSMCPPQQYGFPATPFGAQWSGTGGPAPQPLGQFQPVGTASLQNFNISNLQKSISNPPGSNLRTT

IC50 [1]: 120 nM
Structure (SMILES): CNc1nc(-c2ccc3c(c2)CCN3C(=O)c2ccccc2OCc2ccc(Cl)cc2)cs1

IC50 [2]: 30 nM
Structure (SMILES): CC(C)Oc1ccc2cccc(-n3cc(NC(N)=O)c(C(N)=O)n3)c2c1

Kd [3]: 14 nM
Structure (SMILES): Cn1cnc2c(F)c(Nc3ccc(Br)cc3Cl)c(C(=O)NOCCO)cc21 [SELUMETINIB]

IC50 [4]: 360 nM
Structure (SMILES): O=C1NC(=O)[C@@H](c2cn3c4c(cccc24)CCC3)[C@@H]1c1c[nH]c2ccccc12 [TIVANTINIB]

Kd [3]: 3 nM
IC50 [5]: 2 nM
Structure (SMILES): CC(=O)Nc1cccc(-n2c(=O)n(C3CC3)c(=O)c3c(Nc4ccc(I)cc4F)n(C)c(=O)c(C)c32)c1 [TRAMETINIB]

Reference: ChEMBL document CHEMBL5120797, “Principles of Kinase Allosteric Inhibition and Pocket Validation” (J Med Chem, 2022)
